Measured values: PubChem BioAssay (NCI)
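Exposure lasted 48 hours, with cells grown in 96-well plates and compounds tested at five concentrations. GI50 marks 50% less growth. TGI: total growth inhibition.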

Key:
Assay in all cases: NCI tumour cell line growth inhibition, 48 h
[1] = test system: 786-0 renal
[2] = test system: A498 renal
[3] = test system: A549 NSCLC
[4] = test system: ACHN renal
[5] = test system: BT-549 breast
[6] = test system: CAKI-1 renal
[7] = test system: CCRF-CEM leukemia
[8] = test system: COLO 205 colon
[9] = test system: DU-145 prostate
[10] = test system: HCC-2998 colon
[11] = test system: HCT-116 colon
[12] = test system: HCT-15 colon
[13] = test system: HL-60(TB) leukemia
[14] = test system: HOP-62 NSCLC
[15] = test system: HOP-92 NSCLC
[16] = test system: HS 578T breast
[17] = test system: HT29 colon
[18] = test system: IGROV1 ovarian
[19] = test system: K-562 leukemia
[20] = test system: KM12 colon
[21] = test system: LOX IMVI melanoma
[22] = test system: M14 melanoma
[23] = test system: MALME-3M melanoma
[24] = test system: MCF7 breast
[25] = test system: MDA-MB-231 breast
[26] = test system: MDA-MB-435
[27] = test system: MOLT-4 leukemia
[28] = test system: NCI-H226 lung
[29] = test system: NCI-H23 lung
[30] = test system: NCI-H460 lung
[31] = test system: NCI-H522 lung
[32] = test system: NCI/ADR-RES ovarian
[33] = test system: OVCAR-3 ovarian
[34] = test system: OVCAR-4 ovarian
[35] = test system: OVCAR-5 ovarian
[36] = test system: OVCAR-8 ovarian
[37] = test system: PC-3 prostate
[38] = test system: RPMI-8226 leukemia
[39] = test system: RXF 393 renal
[40] = test system: SF-268 CNS
[41] = test system: SF-295 CNS
[42] = test system: SF-539 CNS
[43] = test system: SK-MEL-2 melanoma
[44] = test system: SK-MEL-28 melanoma
[45] = test system: SK-MEL-5 melanoma
[46] = test system: SK-OV-3 ovarian
[47] = test system: SN12C renal
[48] = test system: SNB-19 CNS
[49] = test system: SNB-75 CNS
[50] = test system: SR leukemia
[51] = test system: SW-620 colon
[52] = test system: T-47D breast
[53] = test system: TK-10 renal
[54] = test system: U251 CNS
[55] = test system: UACC-257 melanoma
[56] = test system: UACC-62 melanoma
[57] = test system: UO-31 renal
[58] = test system: EKVX NSCLC

CC(C)[C@H]1C(=O)N[C@@H](CCCN=C(N)N)C(=O)NCC(=O)N[C@@H](CC(=O)O)C(=O)N[C@H](Cc2ccccc2)C(=O)N1C
GI50 [1]: 5.54 µM
TGI [1]: > 100 µM
GI50 [2]: 0.182 µM
TGI [2]: 1.05 µM
GI50 [3]: 31.8 µM
TGI [3]: > 100 µM
GI50 [4]: > 100 µM
TGI [4]: > 100 µM
GI50 [5]: 1.6 µM
TGI [5]: 3.13 µM
GI50 [6]: > 28.7 µM
TGI [6]: > 100 µM
GI50 [7]: > 100 µM
TGI [7]: > 100 µM
GI50 [8]: > 100 µM
TGI [8]: > 100 µM
GI50 [9]: 7.66 µM
TGI [9]: 70.6 µM
GI50 [10]: > 100 µM
TGI [10]: > 100 µM
GI50 [11]: 1.86 µM
TGI [11]: > 33.4 µM
GI50 [12]: 3.09 µM
TGI [12]: > 74.8 µM
GI50 [13]: > 100 µM
TGI [13]: > 100 µM
GI50 [14]: 7.04 µM
TGI [14]: > 100 µM
GI50 [15]: 0.385 µM
TGI [15]: 2.47 µM
GI50 [16]: 19.8 µM
TGI [16]: > 100 µM
GI50 [17]: > 61.1 µM
TGI [17]: > 100 µM
GI50 [18]: > 62.2 µM
TGI [18]: > 100 µM
GI50 [19]: > 100 µM
TGI [19]: > 100 µM
GI50 [20]: > 100 µM
TGI [20]: > 100 µM
GI50 [21]: 15.5 µM
TGI [21]: > 100 µM
GI50 [22]: > 100 µM
TGI [22]: > 100 µM
GI50 [23]: > 100 µM
TGI [23]: > 100 µM
GI50 [24]: 1.4 µM
TGI [24]: 3.32 µM
GI50 [25]: 1.83 µM
TGI [25]: > 28.9 µM
GI50 [26]: 0.289 µM
TGI [26]: 0.895 µM
GI50 [27]: > 100 µM
TGI [27]: > 100 µM
GI50 [28]: 9.21 µM
TGI [28]: > 100 µM
GI50 [29]: 10.6 µM
TGI [29]: 67.6 µM
GI50 [30]: 31.6 µM
TGI [30]: > 100 µM
GI50 [31]: 2.32 µM
TGI [31]: 5.7 µM
GI50 [32]: > 100 µM
TGI [32]: > 100 µM
GI50 [33]: > 100 µM
TGI [33]: > 100 µM
GI50 [34]: > 100 µM
TGI [34]: > 100 µM
GI50 [35]: 1.34 µM
TGI [35]: > 100 µM
GI50 [36]: 7.35 µM
TGI [36]: > 100 µM
GI50 [37]: > 100 µM
TGI [37]: > 100 µM
GI50 [38]: > 100 µM
TGI [38]: > 100 µM
GI50 [39]: 2.63 µM
TGI [39]: > 100 µM
GI50 [40]: 7.07 µM
TGI [40]: > 100 µM
GI50 [41]: > 82.7 µM
TGI [41]: > 100 µM
GI50 [42]: > 100 µM
TGI [42]: > 100 µM
GI50 [43]: 1.35 µM
TGI [43]: 5.78 µM
GI50 [44]: 31.6 µM
TGI [44]: > 100 µM
GI50 [45]: 0.366 µM
TGI [45]: 1.33 µM
GI50 [46]: > 100 µM
TGI [46]: > 100 µM
GI50 [47]: 2.33 µM
TGI [47]: > 25.3 µM
GI50 [48]: 2.66 µM
TGI [48]: > 100 µM
GI50 [49]: 0.12 µM
TGI [49]: 0.279 µM
GI50 [50]: > 100 µM
TGI [50]: > 100 µM
TGI [51]: > 100 µM
GI50 [52]: 2.87 µM
TGI [52]: > 29.4 µM
GI50 [53]: 1.43 µM
TGI [53]: 4.06 µM
GI50 [54]: > 23.2 µM
TGI [54]: > 100 µM
GI50 [55]: > 27.9 µM
TGI [55]: > 100 µM
GI50 [56]: > 100 µM
TGI [56]: > 100 µM
GI50 [57]: > 73.2 µM
TGI [57]: > 100 µM

COc1ccc(C2CC(n3nnnc3-c3ccccc3)=NN2)cc1 (stereo not drawn)
GI50 [1]: 4.61 µM
TGI [1]: 37.3 µM
GI50 [2]: 18.6 µM
TGI [2]: 55.1 µM
GI50 [4]: 1.44 µM
TGI [4]: 22.4 µM
GI50 [5]: 8.89 µM
TGI [5]: 37.6 µM
GI50 [6]: 0.38 µM
TGI [6]: 2.98 µM
GI50 [7]: 0.499 µM
TGI [7]: 51.1 µM
GI50 [8]: 3.5 µM
TGI [8]: 11.7 µM
GI50 [9]: 12.9 µM
TGI [9]: 49.3 µM
GI50 [58]: 1.8 µM
TGI [58]: 36.3 µM
GI50 [10]: 3.41 µM
TGI [10]: 17.2 µM
GI50 [11]: 4.87 µM
TGI [11]: 22.3 µM
GI50 [12]: 2.16 µM
TGI [12]: 26.2 µM
GI50 [14]: 12.8 µM
TGI [14]: 45.8 µM
GI50 [15]: 11.6 µM
TGI [15]: 42.6 µM
GI50 [16]: 19.7 µM
TGI [16]: 70.3 µM
GI50 [17]: 2.82 µM
TGI [17]: 17.9 µM
GI50 [18]: 2.44 µM
TGI [18]: > 100 µM
GI50 [19]: 0.486 µM
TGI [19]: 28.2 µM
GI50 [20]: 0.617 µM
TGI [20]: 13.6 µM
GI50 [21]: 0.693 µM
TGI [21]: 15.2 µM
GI50 [22]: 0.6 µM
TGI [22]: 14.6 µM
GI50 [23]: 2.66 µM
TGI [23]: 20.3 µM
GI50 [24]: 2.68 µM
TGI [24]: 38.7 µM
GI50 [25]: 0.564 µM
TGI [25]: 12.8 µM
GI50 [26]: 0.974 µM
TGI [26]: 15.6 µM
GI50 [27]: 5.99 µM
TGI [27]: 42.6 µM
GI50 [28]: 4.98 µM
TGI [28]: 22.8 µM
GI50 [29]: 10.8 µM
TGI [29]: 41.7 µM
GI50 [30]: 2.84 µM
TGI [30]: 13.7 µM
GI50 [31]: 1.16 µM
TGI [31]: 20.4 µM
GI50 [32]: 4.3 µM
TGI [32]: 33.7 µM
GI50 [33]: 3.05 µM
TGI [33]: 12 µM
GI50 [34]: 1.11 µM
TGI [34]: 94.8 µM
GI50 [35]: 5.59 µM
TGI [35]: 61.7 µM
GI50 [36]: 4.07 µM
TGI [36]: 61.7 µM
GI50 [37]: 6.28 µM
TGI [37]: 72.3 µM
GI50 [38]: 2.88 µM
TGI [38]: 53.5 µM
GI50 [39]: 21.1 µM
TGI [39]: 95.6 µM
GI50 [40]: 6.38 µM
TGI [40]: 54.5 µM
GI50 [41]: 0.662 µM
TGI [41]: 3.12 µM
GI50 [42]: 2.34 µM
TGI [42]: 5.87 µM
GI50 [43]: 11.6 µM
TGI [43]: 32.7 µM
GI50 [44]: 13.3 µM
TGI [44]: > 100 µM
GI50 [45]: 2.12 µM
TGI [45]: 7.81 µM
GI50 [46]: 22.4 µM
TGI [46]: 66.1 µM
GI50 [47]: 12.7 µM
TGI [47]: > 100 µM
GI50 [48]: 18.1 µM
TGI [48]: > 100 µM
GI50 [49]: 14.4 µM
TGI [49]: 54 µM
GI50 [50]: 35.6 µM
TGI [50]: > 100 µM
GI50 [51]: 2.82 µM
TGI [51]: 25.1 µM
GI50 [52]: 1.16 µM
TGI [52]: 87.3 µM
GI50 [54]: 9.88 µM
TGI [54]: 35.9 µM
GI50 [55]: 2.76 µM
TGI [55]: 12.6 µM
GI50 [56]: 0.465 µM
TGI [56]: 12.5 µM
GI50 [57]: 1.39 µM
TGI [57]: 11.7 µM
